The text below walks through data of patent US7563910B2, “Heterocyclic cannabinoid receptor antagonists” (Hoffmann-La Roche Inc., priority 2004, dated 2009).

The IC50 is the midpoint of a concentration-inhibition curve. Low readings indicate higher potency, high ones lower potency.

Assay [1] addresses T1, human cannabis CB1 receptor (Homo sapiens, UniProt P21554).
T1 construct: expressed in transfected cells; host or cells: human embryonic kidney (HEK) cells, transient, Semliki Forest Virus system; membrane preparation
The assay can be described thus: Affinity for cannabinoid CB1 receptors, [3H]-CP-55,940 radioligand binding on HEK cell membranes. Conditions: affinity for the CB1 receptor. How it is done: The affinity of the compounds of the invention for cannabinoid CB1 receptors was determined using membrane preparations of human embryonic kidney (HEK) cells in which the human cannabis CB1 receptor is transiently transfected using the Semliki Forest Virus system in conjunction with [3H]-CP-55,940 as radioligand. After incubation of a freshly prepared cell membrane preparation with the [3H]-ligand, with or without addition of compounds of the invention, separation of bound and free ligand was performed by filtration over glassfiber filters. Radioactivity on the filter was measured by liquid scintillation counting. The affinity of the compounds of the invention for cannabinoid CB2 receptors was determined using membrane preparations of human embryonic kidney (HEK) cells in which the human cannabis CB2 receptor is transiently transfected using the Semliki Forest virus system in conjunction with [3H]-CP-55,940 as radioligand. After incubation of a freshly prepared cell membrane preparation with the [3H]-ligand, with or without addition of compounds of the invention, separation of bound of bound and free ligand was performed by filtration over glassfiber filters. Radioactivity on the filter was measured by liquid scintillation counting. The cannabinoid CB1 antagonistic activity of compounds of the invention was determined by functional studies using CHO cells in which human cannabinoid CB1 receptors are stably expressed (see M. Rinaldi-Carmona et. al., J. Pharmacol. Exp. Ther. 278 (1996) 871). The stable expression of the human cannabinoid receptor in cell systems was first described in Nature 1990, 346, 561-564 (CB1) and Nature 1993, 365, 61-65 (CB2) respectively. Adenylyl cyclase was stimulated using forskolin and measured by quantifying the amount of accumulated cyclic AMP. […]
The compounds of formula (I) show an excellent affinity for the CB1 receptor, determined with the experimental conditions described in Devane et. al. Mol. Pharmacol. 34 (1988) 605-613. […]

For assay [2] the following is noted: wild-type versus CB1 receptor knockout mice; cited from earlier work.
For assay [3] the following is noted: 10 and 20 mg daily, compared to placebo; cited from earlier work.

T1 sequence (P21554 whole entry): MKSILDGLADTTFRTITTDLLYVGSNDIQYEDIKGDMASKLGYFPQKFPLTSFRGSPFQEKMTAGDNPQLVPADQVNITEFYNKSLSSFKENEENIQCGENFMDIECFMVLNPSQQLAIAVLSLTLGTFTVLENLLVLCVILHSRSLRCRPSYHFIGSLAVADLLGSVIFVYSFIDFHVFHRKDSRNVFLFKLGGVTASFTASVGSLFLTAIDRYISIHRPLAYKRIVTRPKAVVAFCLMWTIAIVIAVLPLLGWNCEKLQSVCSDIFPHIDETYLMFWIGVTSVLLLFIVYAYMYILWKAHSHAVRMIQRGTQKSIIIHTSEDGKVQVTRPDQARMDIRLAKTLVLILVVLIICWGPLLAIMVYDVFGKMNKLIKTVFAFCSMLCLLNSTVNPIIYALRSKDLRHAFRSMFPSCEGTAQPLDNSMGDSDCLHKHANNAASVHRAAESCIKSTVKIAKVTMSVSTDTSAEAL

Compound `Cc1c(C(=O)NN2CCCCC2)nc(-c2ccc(OC(F)(F)F)cc2)n1CC1CCCCO1` (centres unmarked) [Example 1, 5-Methyl-1-(tetrahydro-pyran-2-ylmethyl)-2-(4-trifluoromethoxy-phenyl)-1H-imidazole-4-carboxylic acid piperidin-1-ylamide] gave an IC50 in assay [1] of 120 nM.
Regarding `Cc1c(C(=O)NN2CCCCC2)nn(-c2ccc(Cl)cc2Cl)c1-c1ccc(Cl)cc1` [SR 141716], the food intake result in assay [2] is “reduces food intake in wild-type but not knockout mice”. The body weight entry in assay [3] was “significantly reduced body weight”.
`Cc1c(C(=O)NC2CCCCC2)cc(-c2ccccc2OC(F)(F)F)n1CC1COCCO1` (racemic) [Example 10, (rac) 1-[1,4]Dioxan-2-ylmethyl-2-methyl-5-(2-trifluoromethoxy-phenyl)-1H-pyrrole-3-carboxylic acid cyclohexylamide]: the IC50 in assay [1] came to 76 nM.
As for `Cc1c(C(=O)NC2CCCCC2)cc(-c2cc(C(F)(F)F)ccc2C(F)(F)F)n1C[C@H]1CCCO1` [Example 23, 5-(2,5-Bis-trifluoromethyl-phenyl)-2-methyl-1-[(R)-1-(tetrahydro-furan-2-yl)methyl]-1H-pyrrole-3-carboxylic acid cyclohexylamide], the IC50 in assay [1] turned out to be 8 nM.
